Data on 21 molecules can be found in patent publication US9957264B2 (Merck Sharp & Dohme Corp., priority 2013, dated 2018).

Broadly, the IC50 is the concentration at which inhibition is half-maximal.

Experiment [1] addresses JAK1 (recombinant purified GST-tagged catalytic domain) (Homo sapiens (Human), UniProt P23458). The experiment in a line: Jak Biochemical HTRF Assay (JAK1). Conditions: [ATP] 31.8 μM. The procedure, abridged:
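Kinase reaction with biotinylated peptide substrate was started by ATP addition and run 120 min at room temperature, then quenched with EDTA stop buffer containing streptavidin-Dylight 650 and Eu-pY20 antibody. HTRF read 60 min later (665/615 nm ratio); percent inhibition vs log concentration fit to 4-parameter curve for IC50.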
(Time-resolved FRET reads energy transfer from a long-lived donor to a nearby acceptor.)

Experiment [2] deals with JAK2 (recombinant purified GST-tagged catalytic domain) (Homo sapiens (Human), UniProt O60674). The experiment can be described thus: Jak Biochemical HTRF Assay (JAK2). The conditions noted are these: [ATP] 8.5 μM.
JAK2 (recombinant purified GST-tagged catalytic domain), sequence (O60674 849-1124): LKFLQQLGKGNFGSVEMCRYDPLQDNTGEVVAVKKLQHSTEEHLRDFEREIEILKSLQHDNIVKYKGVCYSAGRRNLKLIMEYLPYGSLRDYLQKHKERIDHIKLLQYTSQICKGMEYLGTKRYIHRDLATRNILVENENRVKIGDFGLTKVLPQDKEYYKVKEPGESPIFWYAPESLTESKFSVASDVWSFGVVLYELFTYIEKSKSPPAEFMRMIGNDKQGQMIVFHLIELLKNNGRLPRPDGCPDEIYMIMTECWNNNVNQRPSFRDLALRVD

JAK1 (recombinant purified GST-tagged catalytic domain), sequence (P23458 875-1153): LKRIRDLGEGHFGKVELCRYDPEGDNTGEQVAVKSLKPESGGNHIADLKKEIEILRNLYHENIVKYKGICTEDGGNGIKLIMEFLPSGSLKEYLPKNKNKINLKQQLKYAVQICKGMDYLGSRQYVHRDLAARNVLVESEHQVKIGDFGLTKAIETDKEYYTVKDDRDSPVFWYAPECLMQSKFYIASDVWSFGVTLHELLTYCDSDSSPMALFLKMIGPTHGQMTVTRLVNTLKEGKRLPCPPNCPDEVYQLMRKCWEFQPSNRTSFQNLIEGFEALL

Take `CC(C)Oc1ccc(CN2CCC(CC#N)(n3nc(Nc4ccc(S(=O)(=O)N(C)C)cc4)c4c(=O)[nH]ccc43)CC2)cc1` [Example 8-6, 4-[(1-{4-(cyanomethyl)-1-[4-(1methylethoxy)benzyl]piperidin-4-yl}-4-oxo-4,5-dihydro-1H-pyrazolo[4,3-c]pyridin-3-yl)amino]-N,N-dimethylbenzenesulfonamide]: the half-inhibitory concentration (IC50) in experiment [1] was 1.94 nM; in experiment [2], 12.4 nM.
For `Cc1cc(Nc2nn(C3(CC#N)CCN(c4ccc(C#N)cn4)CC3)c3cc[nH]c(=O)c23)ccc1C(=O)N1CCSCC1` [Example 15-5, 6-(4-(cyanomethyl)-4-(3-((3-methyl-4-(thiomorpholine-4-carbonyl)phenyl)amino)-4-oxo-4,5-dihydro-1H-pyrazolo[4,3-c]pyridin-1-yl)piperidin-1-yl)nicotinonitrile], in that order: 0.15 nM and 0.17 nM.
Regarding `CN(C)S(=O)(=O)c1ccc(Nc2nn(C3(CC#N)CCN(C(=O)c4ccccc4Cl)CC3)c3cc[nH]c(=O)c23)cc1` [Example 9-15, 4-[(1-{1-[(2-chlorophenyl)carbonyl]-4-(cyanomethyl)piperidin-4-yl}-4-oxo-4,5-dihydro-1H-pyrazolo[4,3-c]pyridin-3-yl)amino]-N,N-dimethylbenzenesulfonamide], the IC50 worked out at 0.81 nM in experiment [1] and 8.38 nM in experiment [2].
For `CC1CCN1S(=O)(=O)c1ccc(Nc2nn([C@]3(CC#N)CCCOC3)c3cc[nH]c(=O)c23)cc1` (single isomer, unassigned) [Example 5-109, [(3S)-3-{3-[(4-{[(2S or 2R)-2-methylazetidin-1-yl]sulfonyl}phenyl)amino]-4-oxo-4,5-dihydro-1H-pyrazolo[4,3-c]pyridin-1-yl}tetrahydro-2H-pyran-3-yl]acetonitrile], in that order: 0.25 nM and 0.29 nM.
For `CC(C)(C)N[C@@H](c1ccc(Nc2nn([C@]3(CC#N)CCOC[C@@H]3F)c3cc[nH]c(=O)c23)cc1)C(F)(F)F` (single isomer, unassigned) [Example 5-270, 2-((3R,4R or 3S,4S)-4-(3-((4-((S or R)-1-(tert-butylamino)-2,2,2-trifluoroethyl)phenyl)amino)-4-oxo-4,5-dihydro-1H-pyrazolo[4,3-c]pyridin-1-yl)-3-fluorotetrahydro-2H-pyran-4-yl)acetonitrile], in that order: 0.12 nM and 0.13 nM.
For `CNC(=O)c1ccc(Nc2nn(C3(CC#N)CCCC3)c3cc[nH]c(=O)c23)cc1` [Example 5-128, 4-((1-(1-(cyanomethyl)cyclopentyl)-4-oxo-4,5-dihydro-1H-pyrazolo[4,3-c]pyridin-3-yl)amino)-N-methylbenzamide.], in that order: 0.22 nM and 2.24 nM.
With `CN(C)S(=O)(=O)c1ccc(Nc2nn(C3(CC#N)CCN(Cc4cccc(F)c4)CC3)c3cc[nH]c(=O)c23)cc1` [Example 8-8, 4-({1-[4-(cyanomethyl)-1-(3-fluorobenzyl)piperidin-4-yl]-4-oxo-4,5-dihydro-1H-pyrazolo[4,3-c]pyridin-3-yl}amino)-N,N-dimethylbenzenesulfonamide], the IC50 is 0.29 nM in experiment [1] and 0.52 nM in experiment [2].
For `CC1(C)C(=O)Nc2cc(Nc3nn([C@]4(CC#N)CCCOC4)c4cc[nH]c(=O)c34)ccc21` [Example 21-4, [(3S)-3-{3-[(3,3-dimethyl-2-oxo-2,3-dihydro-1H-indol-6-yl)amino]-4-oxo-4,5-dihydro-1H-pyrazolo[4,3-c]pyridin-1-yl}tetrahydro-2H-pyran-3-yl]acetonitrile], in that order: 0.09 nM and 0.19 nM.
In the case of `CN(C)S(=O)(=O)c1ccc(Nc2nn(C3(CC#N)CCN(Cc4ccccc4)CC3)c3cc[nH]c(=O)c23)cc1` [Example 8-1, 4-({1-[1-benzyl-4-(cyanomethyl)piperidin-4-yl]-4-oxo-4,5-dihydro-1H-pyrazolo[4,3-c]pyridin-3-yl}amino)-N,N-dimethylbenzenesulfonamide], the half-maximal inhibitory concentration (IC50) stood at 0.17 nM in experiment [1] and 0.38 nM in experiment [2].
For the molecule `CC(C)(C)S(=O)(=O)c1ccc(Nc2nn(C3(CC#N)CCCC3)c3cc[nH]c(=O)c23)cc1` [Example 5-122, 2-(1-(3-((4-(tert-butylsulfonyl)phenyl)amino)-4-oxo-4,5-dihydro-1H-pyrazolo[4,3-c]pyridin-1-yl)cyclopentyl)acetonitrile], the IC50 in experiment [1] stood at 0.22 nM; in experiment [2] it was 0.48 nM.
For the molecule `CC(C)(C)OC(=O)N1CCC(CC#N)(n2nc(Nc3ccc([C@@]4(C(F)(F)F)CCCCN4)cc3)c3c(=O)[nH]ccc32)CC1` (single isomer, unassigned) [Example 21-17, (R or S)-tert-butyl 4-(cyanomethyl)-4-(4-oxo-3-(4-(2-(trifluoromethyl)piperidin-2-yl)phenylamino)-4,5-dihydropyrazolo[4,3-c]pyridin-1-yl)piperidine-1-carboxylate], the 50% inhibitory concentration (IC50) in experiment [1] is 0.63 nM; in experiment [2], 0.58 nM.
In the case of `CN(C)S(=O)(=O)c1ccc(Nc2nn(C3(CC#N)CCOCC3)c3cc[nH]c(=O)c23)cc1` [Example 5-254, 4-((1-(4-(cyanomethyl)tetrahydro-2H-pyran-4-yl)-4-oxo-4,5-dihydro-1H-pyrazolo[4,3-c]pyridin-3-yl)amino)-N,N-dimethylbenzenesulfonamide], the IC50 turned out to be 0.66 nM in experiment [1] and 1.4 nM in experiment [2].
For `CC(C)(C)OC(=O)[C@@H]1CC[C@@](CC#N)(n2nc(Nc3ccc(C(N)C(F)(F)F)cc3)c3c(=O)[nH]ccc32)CO1` (stereo partly drawn) [Example 5-103, (2S,5S)-tert-butyl 5-(3-((4-(1-amino-2,2,2-trifluoroethyl)phenyl)amino)-4-oxo-4,5-dihydro-1H-pyrazolo[4,3-c]pyridin-1-yl)-5-(cyanomethyl)tetrahydro-2H-pyran-2-carboxylate], in that order: 0.07 nM and 0.23 nM.
For `CC(C)(C)OC(=O)[C@@H]1CC[C@@](CC#N)(n2nc(Nc3ccc4c(c3)CN(C3CCCCC3)C4=O)c3c(=O)[nH]ccc32)CO1` [Example 5-101, (2S,5S)-tert-butyl 5-(cyanomethyl)-5-(3-((2-cyclohexyl-1-oxoisoindolin-5-yl)amino)-4-oxo-4,5-dihydro-1H-pyrazolo[4,3-c]pyridin-1-yl)tetrahydro-2H-pyran-2-carboxylate], in that order: 0.18 nM and 0.4 nM.
With `Cc1cc(Nc2nn([C@]3(CC#N)CC[C@@H](C(=O)OC(C)(C)C)OC3)c3cc[nH]c(=O)c23)ccc1C(=O)N1CCOC(C)C1` (single isomer, unassigned) [Example 20-11, (2S,5S)-tert-butyl 5-(cyanomethyl)-5-(3-((3-methyl-4-((S or R)-2-methylmorpholine-4-carbonyl)phenyl)amino)-4-oxo-4,5-dihydro-1H-pyrazolo[4,3-c]pyridin-1-yl)tetrahydro-2H-pyran-2-carboxylate], the IC50 in experiment [1] is 0.23 nM; in experiment [2], 0.35 nM.
Regarding `CN(C)[C@H]1CC[C@](CC#N)(n2nc(Nc3ccc4c(c3)CN(C(C)(C)C)S4(=O)=O)c3c(=O)[nH]ccc32)CC1` [Example 18-37, Trans 2-(1-(3-((2-(tert-butyl)-1,1-dioxido-2,3-dihydrobenzo[d]isothiazol-5-yl)amino)-4-oxo-4,5-dihydro-1H-pyrazolo[4,3-c]pyridin-1-yl)-4-(dimethylamino)cyclohexyl)acetonitrile], the 50% inhibitory concentration (IC50) in experiment [1] was 0.23 nM; in experiment [2], 4.43 nM.
`N#CC[C@]1(n2nc(Nc3cc(F)c4nccc(Cl)c4c3)c3c(=O)[nH]ccc32)CCOC1` (single isomer, unassigned) [Example 5-244, [(3S or 3R)-3-{3-[(4-chloro-8-fluoroquinolin-6-yl)amino]-4-oxo-4,5-dihydro-1H-pyrazolo[4,3-c]pyridin-1-yl}tetrahydrofuran-3-yl]acetonitrile]: the results for the IC50 in experiment [1] and in experiment [2] were 23 nM and 348 nM, respectively.
Consider `Cc1cc(Nc2nn([C@]3(CC#N)CC[C@@H](C(=O)OC(C)(C)C)OC3)c3cc[nH]c(=O)c23)ccc1C(=O)N1CCSC1` [Example 5-155, (2S,5S)-tert-butyl 5-(cyanomethyl)-5-(3-((3-methyl-4-(thiazolidine-3-carbonyl)phenyl)amino)-4-oxo-4,5-dihydro-1H-pyrazolo[4,3-c]pyridin-1-yl)tetrahydro-2H-pyran-2-carboxylate], for which the IC50 worked out at 0.18 nM in experiment [1] and 0.39 nM in experiment [2].
For `COC(=O)N1CCC(CC#N)(n2nc(Nc3ccc4c(c3)CN(CC3CCCC3)S4(=O)=O)c3c(=O)[nH]ccc32)CC1` [Example 5-75, methyl 4-(cyanomethyl)-4-(3-{[2-(cyclopentylmethyl)-1,1-dioxo-2,3-dihydro-1,2-benzothiazol-5-yl]amino}-4-oxo-1H,4H,5H-pyrazolo [4,3-c]pyridin-1-yl) piperidine-1-carboxylate], in that order: 0.12 nM and 0.37 nM.
On to `CC(C)S(=O)(=O)c1ccc(Nc2nn(C3(CC#N)CCN(C(=O)C(C)(F)F)CC3)c3cc[nH]c(=O)c23)cc1` [Example 5-57, 2-(1-(2,2-difluoropropanoyl)-4-(3-((4-(isopropylsulfonyl)phenyl)amino)-4-oxo-4,5-dihydro-1H-pyrazolo[4,3-c]pyridin-1-yl)piperidin-4-yl)acetonitrile], for which the values for the 50% inhibitory concentration (IC50) in experiment [1] and in experiment [2] were 0.08 nM and 0.13 nM, respectively.
For `CO[C@@H](c1ccc(Nc2nn([C@]3(CC#N)CC[C@@H](C(=O)OC(C)(C)C)OC3)c3cc[nH]c(=O)c23)cc1)C(F)(F)F` (single isomer, unassigned) [Example 21-8, (2S,5S)-tert-butyl 5-(cyanomethyl)-5-(4-oxo-3-((4-((S or R)-2,2,2-trifluoro-1-methoxyethyl)phenyl)amino)-4,5-dihydro-1H-pyrazolo[4,3-c]pyridin-1-yl)tetrahydro-2H-pyran-2-carboxylate], in that order: 0.38 nM and 1.03 nM.
